Experimental data reported in paper PMC8410672 (Chemistry (Weinheim an der Bergstrasse, Germany), 2021).

What was measured:
[1] = tested on: P. aeruginosa (Schroeter) Migula (ATCC 27853); experiment: P. aeruginosa-induced bacterial peritonitis model; assay type: in vivo, Balb/c mice; details: 15 mg/kg i.p. single dose, n=10, 7 days, p <0.001
[2] = tested on: clinical isolates of P. aeruginosa; experiment: MIC against clinical isolates from cystic fibrosis patients; assay type: cell-based; details: n=20 clinical isolates, CAMHB
Balb/c mice = experiment: toxicity profile in mice, intraperitoneal; assay type: in vivo, mouse; details: Balb/c mice n=3, i.p.; very mild toxicity after 1 h, recovered after 24 h
[3] = tested on: clinical isolates of methicillin-resistant S. aureus; experiment: MIC against clinical isolates from cystic fibrosis patients; assay type: cell-based; details: n=20 methicillin-resistant clinical isolates; CAMHB

| Compound | survival hazard ratio [HR] [1] | P. aeruginosa MIC50 ([2]; 30% MDR) [µM] | P. aeruginosa MIC90 [2] [µM] | well tolerated intraperitoneal dose (MTD) (Balb/c mice) [mg/kg] | S. aureus MICrange [3] [µM] |
| --- | --- | --- | --- | --- | --- |
| Colistin | 0.040 | ≤ 0.2 | 0.4 | 15 | – |
| CN[C@H](CC(C)C)C(=O)N[C@H]1C(=O)N[C@@H](CC(N)=O)C(=O)N[C@H]2C(=O)N[C@H]3C(=O)N[C@H](C(=O)N[C@H](C(=O)O)c4cc(O)cc(O)c4-c4cc3ccc4O)[C@H](O)c3ccc(c(Cl)c3)Oc3cc2cc(c3O[C@@H]2O[C@H](CO)[C@@H](O)[C@H](O)[C@H]2O[C@H]2C[C@](C)(N)[C@H](O)[C@H](C)O2)Oc2ccc(cc2Cl)[C@H]1O [Vancomycin] | – | – | – | – | 0.5 to 1.4 |
